The values below come from patent publication US20210386789A1, “Enhancement of Mesenchymal Stem Cell Anti-inflammatory and Regenerative Activity Using mTOR Inhibitors” (BRAIN CANCER RESEARCH INSTITUTE, priority 2020, published 2021).

In the data set the test system is Bone marrow MSCs. Briefly: HGF-1 production by bone marrow MSCs cultured with rapamycin (ELISA). Type of data set: cell-based. To be noted: bone marrow MSCs (ATCC), 96 well plates, indicated concentrations of rapamycin and time points, ELISA (R&D Systems), FIG. 1. As to the method:
Bone marrow MSCs were purchased from American Type Culture Collection (hereinafter, “ATCC”) and grown in DMEM media with 10% fetal calf serum. Cells were allowed to expand to 100% confluence. The media was subsequently washed with phosphate buffered saline (PBS). Cells were plated on 96 well plates and cultured in the presence of the indicated concentrations of rapamycin for the indicated time points. Hepatocyte Growth Factor (HGF-1) expression was assessed using ELISA (R&D Systems).
A general note: An ELISA detects its analyte on a solid surface through an enzyme-linked reagent.

Structures are written as SMILES.

For `CO[C@H]1C[C@@H]2CC[C@@H](C)[C@@](O)(O2)C(=O)C(=O)N2CCCC[C@H]2C(=O)O[C@H]([C@H](C)C[C@@H]2CC[C@@H](O)[C@H](OC)C2)CC(=O)[C@H](C)/C=C(\C)[C@@H](O)[C@@H](OC)C(=O)[C@H](C)C[C@H](C)/C=C/C=C/C=C/1C` [rapamycin, Rapamycin], the “Hepatocyte Growth Factor (HGF-1) expression / production” value is “significant increase in production of HGF-1”.
